# Laboratory results published in PubChem BioAssay (NCI).
#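 48-hour exposure; five concentrations; linearly interpolated endpoints. GI50: concentration for 50% inhibition of growth. TGI: concentration producing complete growth inhibition.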
# Test system: UACC-62 melanoma
# Assay: growth of human tumour cells (NCI), 48 h
Structure (SMILES),TGI [µM],GI50 [µM]
CC(C)=CCC\C(C)=C/C=C/C(C)=C\C=C\C(C)=C/C=C/C=C(C)\C=C\C=C(C)/C=C/C=C(/C)CCC=C(C)C,> 100,
CC(=O)[CH-]C(=O)c1ccccc1.CC(=O)[CH-]C(=O)c1ccccc1.CN(C)c1ccc([O-])cc1.CN(C)c1ccc([O-])cc1.Cl.[Ti+4],> 31.6,> 31.6
COC(=O)CC[N+]1=CCC(c2ccccc2)(c2ccccc2)O1,> 100,
CCN(CC)N=Nc1c(C(N)=O)n[nH]c1C,> 100,
CCC[CH2][Sn]([CH2]CCC)([S]c1cccc2cccnc12)[S]c1cccc2cccnc12,0.959,0.279
OCC1=CC(NC2CC(CO)C(O)C(O)C2O)C(O)C(O)C1O (centres undefined),> 100,
Nc1ccccc1S(=O)(=O)N(CC(=O)O)c1ccccc1,> 100,
CCOC(=O)C(C)(C)Oc1ccc2c(-c3ccccc3)cc(=O)oc2c1,38.6,
Cc1cc(NS(=O)(=O)c2ccc(Nc3c4ccccc4nc4c(C(=O)N5CCN(CCOS(C)(=O)=O)CC5)cccc34)cc2)no1,> 100,
NC1=NCCC1(c1ccccc1)c1ccccn1 (centres undefined),> 100,
CC1CCc2nc[nH]c(=O)c21 (centres undefined),> 100,> 100
CNC(=S)OCCC(C)CCCC(C)C (centres undefined),29.1,
COC1/C=C/OC2(C)Oc3c(C)c(O)c4c(O)c(c(/C=N/Nc5ccc([N+](=O)[O-])cc5[N+](=O)[O-])c(O)c4c3C2=O)NC(=O)C(C)=C/C=C/C(C)C(O)C(C)C(O)C(C)C(OC(C)=O)C1C (centres undefined),5.08,1.37
Cc1cnc(NCCCN(C)C)c2c1[nH]c1ccc3cc(O)ccc3c12,1.9,

# Test system: UO-31 renal
# Assay: growth of human tumour cells (NCI), 48 h
Structure (SMILES),GI50 [µM],TGI [µM]
Nc1nc(-n2c(-c3ccccc3)nc3c(Br)cc(Br)cc3c2=O)nnc1-c1cccc(Cl)c1Cl,40.2,> 100
CCCCCCCCCCCC(=O)OCCOCCOCCOCCOCCOCc1ccccc1,,> 100
CCCC1C(=O)CCc2c(OC)ccc(OC)c21 (centres undefined),,> 100
O=C(CCc1nc(=S)[nH][nH]1)Nc1cc(Cl)c(Cl)cc1Cl,,> 100
COc1ccc(CC2c3cc4c(cc3CCN2C)OCO4)c(C=O)c1OC (centres undefined),,> 100
O=C(Nc1nc2ccc([N+](=O)[O-])cc2s1)C(=O)C(C1OC(=O)c2ccccc21)[N+](=O)[O-] (centres undefined),,94.4
Cc1cc(-c2nc(C(=O)Nc3cc4oc(N5CCOCC5)nc4nc3N3CC[C@@H](O)C3)co2)ccn1,14.9,68.7
COC(=O)C1(C(C)C)CCc2c(OC)ccc(OC)c2C1=O (centres undefined),,> 100
Cc1ccc(Cl)c2c(N=Nc3ccccc3[N+](=O)[O-])c(O)[nH]c12,,> 100
FC(F)(F)c1cccc(Nc2nc(-c3ccccc3)nc3ncccc23)c1,4.86,21.8
COC(=O)c1ccccc1NC(=O)C(=O)Cc1nc2c3c(ccc2[nH]c1=O)C(=O)c1ccccc1C3=O,,> 100
Cc1ccc(S(=O)(=O)OC[C@@H]2CO2)cc1,,> 100
O=C(CC(=O)c1cccc2ccccc12)C(=O)Nc1ccc(Cl)cc1,,> 100
C=CCO[C@H]1CO[C@H]2[C@@H]1OC[C@@H]2Oc1ccc(Nc2ccnc(Nc3ccc(O[C@H]4CO[C@H]5[C@@H]4OC[C@@H]5OCC=C)c(Cl)c3)n2)cc1Cl,1.58,2.93
OCc1cc2ccccc2c2c3c(ccc12)OCO3,26.3,108
CC1(C(=O)O)CCC[C@@]2(C)C1CC[C@@]1(C)c3cocc3CCC21 (some centres undefined),,> 100
CCOC(=O)CCC1(C(=O)OCC)CCCCC1=O (centres undefined),,> 100

Structure (SMILES),GI50 [µM],TGI [µM]
CCOC1Oc2ccccc2C(=O)/C1=C/Nc1ccc(C(C)=O)cc1 (centres undefined),27.9,> 100
Cc1nc2c(ccc3ncccc32)[nH]1,,> 100
CCN1CCN(Cc2ccc(NC(=O)c3cccc(C#Cc4cccc5[nH]nc(N)c45)c3)cc2C(F)(F)F)CC1,0.299,1.28
Cc1cc(N(CCC#N)CCC#N)ccc1N=Nc1ccc(S(N)(=O)=O)cc1,,> 100
CC(C)=CCC\C(C)=C/C=C/C(C)=C\C=C\C(C)=C/C=C/C=C(C)\C=C\C=C(C)/C=C/C=C(/C)CCC=C(C)C,,> 100
CC(=O)[CH-]C(=O)c1ccccc1.CC(=O)[CH-]C(=O)c1ccccc1.CN(C)c1ccc([O-])cc1.CN(C)c1ccc([O-])cc1.Cl.[Ti+4],17.9,> 31.6
COC(=O)CC[N+]1=CCC(c2ccccc2)(c2ccccc2)O1,,> 100
CCN(CC)N=Nc1c(C(N)=O)n[nH]c1C,,> 100
CCC[CH2][Sn]([CH2]CCC)([S]c1cccc2cccnc12)[S]c1cccc2cccnc12,0.189,0.345
OCC1=CC(NC2CC(CO)C(O)C(O)C2O)C(O)C(O)C1O (centres undefined),,> 100
Nc1ccccc1S(=O)(=O)N(CC(=O)O)c1ccccc1,,> 100
CCOC(=O)C(C)(C)Oc1ccc2c(-c3ccccc3)cc(=O)oc2c1,,76
Cc1cc(NS(=O)(=O)c2ccc(Nc3c4ccccc4nc4c(C(=O)N5CCN(CCOS(C)(=O)=O)CC5)cccc34)cc2)no1,,> 100
CC1CCc2nc[nH]c(=O)c21 (centres undefined),> 100,> 100
CNC(=S)OCCC(C)CCCC(C)C (centres undefined),,20.7
COC1/C=C/OC2(C)Oc3c(C)c(O)c4c(O)c(c(/C=N/Nc5ccc([N+](=O)[O-])cc5[N+](=O)[O-])c(O)c4c3C2=O)NC(=O)C(C)=C/C=C/C(C)C(O)C(C)C(O)C(C)C(OC(C)=O)C1C (centres undefined),8.71,23.6
Cc1cnc(NCCCN(C)C)c2c1[nH]c1ccc3cc(O)ccc3c12,,5.8

# Test system: NCI-H522 lung
# Assay: growth of human tumour cells (NCI), 48 h
Structure (SMILES),GI50 [µM],TGI [µM]
Nc1nc(-n2c(-c3ccccc3)nc3c(Br)cc(Br)cc3c2=O)nnc1-c1cccc(Cl)c1Cl,20.8,> 100
Cc1c(C(=O)C/C(=N/NC(=O)c2ccccc2O)C(=O)Nc2ccccc2C(C)C)[n+](=O)c2ccccc2n1[O-],,65.8
CCCCCCCCCCCC(=O)OCCOCCOCCOCCOCCOCc1ccccc1,,> 100
O=C(CCc1nc(=S)[nH][nH]1)Nc1cc(Cl)c(Cl)cc1Cl,,> 100
COc1ccc(CC2c3cc4c(cc3CCN2C)OCO4)c(C=O)c1OC (centres undefined),,> 100
Cc1cc(-c2nc(C(=O)Nc3cc4oc(N5CCOCC5)nc4nc3N3CC[C@@H](O)C3)co2)ccn1,20,> 100
COC(=O)C1(C(C)C)CCc2c(OC)ccc(OC)c2C1=O (centres undefined),,> 100
COC(=O)c1ccccc1NC(=O)C(=O)Cc1nc2c3c(ccc2[nH]c1=O)C(=O)c1ccccc1C3=O,,35.7
O=C(CC(=O)c1cccc2ccccc12)C(=O)Nc1ccc(Cl)cc1,,> 100
C=CCO[C@H]1CO[C@H]2[C@@H]1OC[C@@H]2Oc1ccc(Nc2ccnc(Nc3ccc(O[C@H]4CO[C@H]5[C@@H]4OC[C@@H]5OCC=C)c(Cl)c3)n2)cc1Cl,1.96,4.24
CCOC(=O)CCC1(C(=O)OCC)CCCCC1=O (centres undefined),,> 100
CCOC1Oc2ccccc2C(=O)/C1=C/Nc1ccc(C(C)=O)cc1 (centres undefined),27.1,87.3
Cc1nc2c(ccc3ncccc32)[nH]1,,> 100
Cc1cc(N(CCC#N)CCC#N)ccc1N=Nc1ccc(S(N)(=O)=O)cc1,,> 100
CC(=O)[CH-]C(=O)c1ccccc1.CC(=O)[CH-]C(=O)c1ccccc1.CN(C)c1ccc([O-])cc1.CN(C)c1ccc([O-])cc1.Cl.[Ti+4],12.3,24
CC1(C)C(=O)/C=C\C(=O)C(C)(C)C2=CC=C(O2)C(C)(C)C(=O)/C=C\C(=O)C(C)(C)C2=CC=C1O2,,> 100
COC(=O)CC[N+]1=CCC(c2ccccc2)(c2ccccc2)O1,,> 100
CCN(CC)N=Nc1c(C(N)=O)n[nH]c1C,,> 100
OCC1=CC(NC2CC(CO)C(O)C(O)C2O)C(O)C(O)C1O (centres undefined),,> 100
Nc1ccccc1S(=O)(=O)N(CC(=O)O)c1ccccc1,,> 100
NC1=NCCC1(c1ccccc1)c1ccccn1 (centres undefined),,> 100
CC1CCc2nc[nH]c(=O)c21 (centres undefined),> 100,> 100
Cc1cnc(NCCCN(C)C)c2c1[nH]c1ccc3cc(O)ccc3c12,,0.624

# Test system: ACHN renal
# Assay: growth of human tumour cells (NCI), 48 h
Structure (SMILES),GI50 [µM],TGI [µM]
Nc1nc(-n2c(-c3ccccc3)nc3c(Br)cc(Br)cc3c2=O)nnc1-c1cccc(Cl)c1Cl,12.2,40.2
Cc1c(C(=O)C/C(=N/NC(=O)c2ccccc2O)C(=O)Nc2ccccc2C(C)C)[n+](=O)c2ccccc2n1[O-],,> 100
CCCCCCCCCCCC(=O)OCCOCCOCCOCCOCCOCc1ccccc1,,> 100
CCCC1C(=O)CCc2c(OC)ccc(OC)c21 (centres undefined),,> 100
O=C(CCc1nc(=S)[nH][nH]1)Nc1cc(Cl)c(Cl)cc1Cl,,> 100
COc1ccc(CC2c3cc4c(cc3CCN2C)OCO4)c(C=O)c1OC (centres undefined),,> 100
O=C(Nc1nc2ccc([N+](=O)[O-])cc2s1)C(=O)C(C1OC(=O)c2ccccc21)[N+](=O)[O-] (centres undefined),,> 100
Cc1cc(-c2nc(C(=O)Nc3cc4oc(N5CCOCC5)nc4nc3N3CC[C@@H](O)C3)co2)ccn1,17.9,93.7
COC(=O)C1(C(C)C)CCc2c(OC)ccc(OC)c2C1=O (centres undefined),,> 100
Cc1ccc(Cl)c2c(N=Nc3ccccc3[N+](=O)[O-])c(O)[nH]c12,,> 100
